Values of other authors in patent US7312209B2, “Acridone inhibitors of IMPDH enzyme” (Bristol-Myers Squibb Company, priority 2001, dated 2007).

Key:
IMPDH types I and II = details: RT-PCR; low and high concentrations
IL-2, IL-4, and IFN = details: RT-PCR; Rol 10^−7 M, MPA 10^−8 M
[1] = test system: antigen-specific T lymphocyte responses; details: in combination with Rol 10^−7 M

| SMILES | gene expression for IMPDH types I and II (IMPDH types I and II) | downregulation in the generation of proinflammatory cytokines (IL-2, IL-4, IFN) (IL-2, IL-4, and IFN) | synergistic effect on inhibition of antigen-induced proliferation [1] |
| --- | --- | --- | --- |
| COc1ccc(C2CNC(=O)C2)cc1OC1CCCC1 (stereo not drawn) [Rol, 4-[3-(cyclopentyloxy)-4-methoxy-phenyl]-2-pyrrolidinone] | remained unaffected | no significant downregulation |  |
| C=CC[C@@H]1/C=C(\C)C[C@H](C)C[C@H](OC)[C@H]2O[C@@](O)(C(=O)C(=O)N3CCCC[C@H]3C(=O)O[C@H](/C(C)=C/[C@@H]3CC[C@@H](O)[C@H](OC)C3)[C@H](C)[C@@H](O)CC1=O)[C@H](C)C[C@@H]2OC [tacrolimus] |  |  | little or no synergistic effect |
| COc1c(C)c2c(c(O)c1C/C=C(\C)CCC(=O)O)C(=O)OC2 [MPA, mycophenolic acid] | remained unaffected | no significant downregulation | marked synergistic effect |
